Experimental data from article PMC12250624, “Anti-Amyloid Aggregation Effects of Gobaishi (Galla chinensis) and Its Active Constituents” (Molecules, 2025).
pEC50: −log10 of the molar value.

Target: T1, Aβ42 (amyloid-beta) (Homo sapiens, UniProt P05067)
T1 construct: gene APP; Aβ42
Assay: ThT fibril aggregation assay, […] Aβ[…] h at […] °C
Format: biochemical

T1 sequence (P05067 672-713): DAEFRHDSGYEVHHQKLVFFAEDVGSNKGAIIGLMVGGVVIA

O=C(/C=C/c1ccc(O)c(O)c1)O[C@H](Cc1ccc(O)c(O)c1)C(=O)O [Rosmarinic acid]
pEC50: 4.82
